Source: patent US9029337B2, “Modulation of factor 7 expression” (Isis Pharmaceuticals, Inc., priority 2007, dated 2015)
Strand notation (5' to 3'): a small letter for the sugar, then the base; units joined by * are phosphorothioate-linked, units joined directly phosphodiester-linked; [ ] holds rarer units or linkages, { } end groups; capitals alone tell only the bases. e = 2'-O-(2-methoxyethyl) (MOE); [5mC] = 5-methylcytosine; d = 2'-deoxy (DNA)

Tested on: human Factor 7 mRNA
Test: Antisense inhibition of human Factor 7 mRNA in HepB3 cells, 50 nM antisense oligonucleotide, lipofectin
Format: cell-based
Conditions: Table 1, 50 nM, lipofectin, approximately 24 hours, relative to untreated control cells
Procedure, shortened: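 Seeding density was 4,000 cells per well. Following roughly 24 hours of oligonucleotide treatment, RNA was extracted and Factor 7 message quantified using the RTS 2927 primer probe set. Levels were corrected for RIBOGREEN® total RNA and expressed against untreated controls.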

Point of comparison: “407594 (antisense e[5mC]*e[5mC]*eT*eG*e[5mC]*dA*dG*d[5mC]*d[5mC]*dA*dG*dG*d[5mC]*dA*dG*e[5mC]*e[5mC]*e[5mC]*eT*eG) [compound 407594]”, “% Inhibition” value 87%. Against it:
- 407606 (antisense e[5mC]*eT*eG*eG*eT*d[5mC]*d[5mC]*dT*dT*dG*d[5mC]*dA*dG*dG*dA*eG*e[5mC]*e[5mC]*e[5mC]*e[5mC]) [compound 407606] — higher, 89%
- 407641 (antisense e[5mC]*e[5mC]*eT*eG*eA*dG*dG*d[5mC]*d[5mC]*dA*dG*d[5mC]*dA*dG*dA*eT*e[5mC]*eA*e[5mC]*eG) [compound 407641] — higher, 94%
- 407643 (antisense e[5mC]*eA*e[5mC]*eA*e[5mC]*dA*dT*dG*dG*dA*dG*dT*d[5mC]*dA*dG*e[5mC]*eA*eT*e[5mC]*eG) [compound 407643] — lower, 84%

Same assay, conditions: lipofectin, 50 nM antisense oligonucleotide, approximately 24 hours, Factor 7 mRNA by real-time RT-PCR (RTS 2927), relative to untreated control

Point of comparison: “407641 (antisense e[5mC]*e[5mC]*eT*eG*eA*dG*dG*d[5mC]*d[5mC]*dA*dG*d[5mC]*dA*dG*dA*eT*e[5mC]*eA*e[5mC]*eG) [compound 407641]”, “% Inhibition” value 73%. Against it:
- 407606 (antisense e[5mC]*eT*eG*eG*eT*d[5mC]*d[5mC]*dT*dT*dG*d[5mC]*dA*dG*dG*dA*eG*e[5mC]*e[5mC]*e[5mC]*e[5mC]) [compound 407606] — lower, 57%
- 407643 (antisense e[5mC]*eA*e[5mC]*eA*e[5mC]*dA*dT*dG*dG*dA*dG*dT*d[5mC]*dA*dG*e[5mC]*eA*eT*e[5mC]*eG) [compound 407643] — higher, 80%

Same assay, conditions: oligonucleotides targeted to nucleobases 14707 to 14732 of SEQ ID NO: 1 (Table 11)

With “407641 (antisense e[5mC]*e[5mC]*eT*eG*eA*dG*dG*d[5mC]*d[5mC]*dA*dG*d[5mC]*dA*dG*dA*eT*e[5mC]*eA*e[5mC]*eG) [compound 407641]” the “% Inhibition (human Factor 7 mRNA levels)” value was 68%.

Same assay, conditions: oligonucleotides targeted to nucleobases 15098 to 15122 of SEQ ID NO: 1 (Table 12)

For “407643 (antisense e[5mC]*eA*e[5mC]*eA*e[5mC]*dA*dT*dG*dG*dA*dG*dT*d[5mC]*dA*dG*e[5mC]*eA*eT*e[5mC]*eG) [compound 407643]”, the “% Inhibition (human Factor 7 mRNA levels)” value was 69%.

Tested on: human Factor 7 mRNA
Test: Dose-dependent antisense inhibition of human Factor 7 in HepB3 cells, lipofectin
Format: cell-based
Conditions: Table 3, 3.125 nM, approximately 16 hours
Experimental: Cells were plated at a density of 4,000 cells per well and treated with lipofectin reagent with 3.125 nM, 6.25 nM, 12.5 nM, 25 nM, 50 nM, and 100 nM concentrations of antisense oligonucleotide, as indicated in Table 3. After a treatment period of approximately 16 hours, RNA was isolated from the cells and Factor 7 mRNA levels were measured by real-time RT-PCR, as described herein. Human Factor 7 primer probe set RTS 2927 (forward sequence: […], incorporated herein as SEQ ID NO: 164; reverse sequence: […], incorporated herein as SEQ ID NO: 165; probe sequence: TGGGTGGTCTCCGCGGCCX, incorporated herein as SEQ ID NO: 166) was used to measure mRNA levels. Factor 7 mRNA levels were adjusted according to total RNA content as measured by RIBOGREEN®. Results are presented as percent inhibition of Factor 7, relative to untreated control cells.
Cells were plated at a density of 4,000 cells per well and transfected using lipofectin reagent with 6.25 nM, 12.5 nM, 25.0 nM, 50.0 nM, and 100.0 nM concentrations of antisense oligonucleotide, as indicated in Table 7. After a treatment period of approximately 16 hours, RNA was isolated from the cells and Factor 7 mRNA levels were measured by real-time RT-PCR, as described herein. Human Factor 7 primer probe set RTS 2927 was used to measure mRNA levels. Factor 7 mRNA levels were adjusted according to total RNA content as measured by RIBOGREEN®. Results are presented as percent inhibition of Factor 7, relative to untreated control cells.
Cells were plated at a density of 4,000 cells per well and transfected using lipofectin reagent with 3.125 nM, 6.25 nM, 12.5 nM, 25 nM, 50 nM, and 100 nM concentrations of antisense oligonucleotide, as specified in Table 14. After a treatment period of approximately 16 hours, RNA was isolated from the cells and Factor 7 mRNA levels were measured by quantitative real-time PCR. Human Factor 7 primer probe set RTS 2927 was used to measure mRNA levels. Factor 7 mRNA levels were adjusted according to total RNA content, as measured by RIBOGREEN®. Results are presented as percent inhibition of Factor 7, relative to untreated control cells.

Point of comparison: “407643 (antisense e[5mC]*eA*e[5mC]*eA*e[5mC]*dA*dT*dG*dG*dA*dG*dT*d[5mC]*dA*dG*e[5mC]*eA*eT*e[5mC]*eG) [compound 407643]”, “percent inhibition of Factor 7” value 16%. Against it:
- 407594 (antisense e[5mC]*e[5mC]*eT*eG*e[5mC]*dA*dG*d[5mC]*d[5mC]*dA*dG*dG*d[5mC]*dA*dG*e[5mC]*e[5mC]*e[5mC]*eT*eG) [compound 407594] — lower, 10%
- 407606 (antisense e[5mC]*eT*eG*eG*eT*d[5mC]*d[5mC]*dT*dT*dG*d[5mC]*dA*dG*dG*dA*eG*e[5mC]*e[5mC]*e[5mC]*e[5mC]) [compound 407606] — higher, 20%
- 407641 (antisense e[5mC]*e[5mC]*eT*eG*eA*dG*dG*d[5mC]*d[5mC]*dA*dG*d[5mC]*dA*dG*dA*eT*e[5mC]*eA*e[5mC]*eG) [compound 407641] — higher, 53%

Same assay, conditions: Table 3, 6.25 nM, approximately 16 hours

Point of comparison: “407606 (antisense e[5mC]*eT*eG*eG*eT*d[5mC]*d[5mC]*dT*dT*dG*d[5mC]*dA*dG*dG*dA*eG*e[5mC]*e[5mC]*e[5mC]*e[5mC]) [compound 407606]”, “percent inhibition of Factor 7” value 0%. Against it:
- 407594 (antisense e[5mC]*e[5mC]*eT*eG*e[5mC]*dA*dG*d[5mC]*d[5mC]*dA*dG*dG*d[5mC]*dA*dG*e[5mC]*e[5mC]*e[5mC]*eT*eG) [compound 407594] — higher, 34%
- 407641 (antisense e[5mC]*e[5mC]*eT*eG*eA*dG*dG*d[5mC]*d[5mC]*dA*dG*d[5mC]*dA*dG*dA*eT*e[5mC]*eA*e[5mC]*eG) [compound 407641] — higher, 53%
- 407643 (antisense e[5mC]*eA*e[5mC]*eA*e[5mC]*dA*dT*dG*dG*dA*dG*dT*d[5mC]*dA*dG*e[5mC]*eA*eT*e[5mC]*eG) [compound 407643] — higher, 59%

Same assay, conditions: Table 3, 12.5 nM, approximately 16 hours

Point of comparison: “407641 (antisense e[5mC]*e[5mC]*eT*eG*eA*dG*dG*d[5mC]*d[5mC]*dA*dG*d[5mC]*dA*dG*dA*eT*e[5mC]*eA*e[5mC]*eG) [compound 407641]”, “percent inhibition of Factor 7” value 71%. Against it:
- 407594 (antisense e[5mC]*e[5mC]*eT*eG*e[5mC]*dA*dG*d[5mC]*d[5mC]*dA*dG*dG*d[5mC]*dA*dG*e[5mC]*e[5mC]*e[5mC]*eT*eG) [compound 407594] — lower, 63%
- 407606 (antisense e[5mC]*eT*eG*eG*eT*d[5mC]*d[5mC]*dT*dT*dG*d[5mC]*dA*dG*dG*dA*eG*e[5mC]*e[5mC]*e[5mC]*e[5mC]) [compound 407606] — lower, 49%
- 407643 (antisense e[5mC]*eA*e[5mC]*eA*e[5mC]*dA*dT*dG*dG*dA*dG*dT*d[5mC]*dA*dG*e[5mC]*eA*eT*e[5mC]*eG) [compound 407643] — lower, 68%

Same assay, conditions: Table 3, 25.0 nM, approximately 16 hours

Point of comparison: “407643 (antisense e[5mC]*eA*e[5mC]*eA*e[5mC]*dA*dT*dG*dG*dA*dG*dT*d[5mC]*dA*dG*e[5mC]*eA*eT*e[5mC]*eG) [compound 407643]”, “percent inhibition of Factor 7” value 76%. Against it:
- 407594 (antisense e[5mC]*e[5mC]*eT*eG*e[5mC]*dA*dG*d[5mC]*d[5mC]*dA*dG*dG*d[5mC]*dA*dG*e[5mC]*e[5mC]*e[5mC]*eT*eG) [compound 407594] — higher, 77%
- 407606 (antisense e[5mC]*eT*eG*eG*eT*d[5mC]*d[5mC]*dT*dT*dG*d[5mC]*dA*dG*dG*dA*eG*e[5mC]*e[5mC]*e[5mC]*e[5mC]) [compound 407606] — lower, 55%
- 407641 (antisense e[5mC]*e[5mC]*eT*eG*eA*dG*dG*d[5mC]*d[5mC]*dA*dG*d[5mC]*dA*dG*dA*eT*e[5mC]*eA*e[5mC]*eG) [compound 407641] — higher, 84%

Same assay, conditions: Table 3, 50.0 nM, approximately 16 hours

Point of comparison: “407643 (antisense e[5mC]*eA*e[5mC]*eA*e[5mC]*dA*dT*dG*dG*dA*dG*dT*d[5mC]*dA*dG*e[5mC]*eA*eT*e[5mC]*eG) [compound 407643]”, “percent inhibition of Factor 7” value 92%. Against it:
- 407594 (antisense e[5mC]*e[5mC]*eT*eG*e[5mC]*dA*dG*d[5mC]*d[5mC]*dA*dG*dG*d[5mC]*dA*dG*e[5mC]*e[5mC]*e[5mC]*eT*eG) [compound 407594] — lower, 84%
- 407606 (antisense e[5mC]*eT*eG*eG*eT*d[5mC]*d[5mC]*dT*dT*dG*d[5mC]*dA*dG*dG*dA*eG*e[5mC]*e[5mC]*e[5mC]*e[5mC]) [compound 407606] — lower, 83%
- 407641 (antisense e[5mC]*e[5mC]*eT*eG*eA*dG*dG*d[5mC]*d[5mC]*dA*dG*d[5mC]*dA*dG*dA*eT*e[5mC]*eA*e[5mC]*eG) [compound 407641] — lower, 88%

Same assay, conditions: Table 3, 100.0 nM, approximately 16 hours

Point of comparison: “407594 (antisense e[5mC]*e[5mC]*eT*eG*e[5mC]*dA*dG*d[5mC]*d[5mC]*dA*dG*dG*d[5mC]*dA*dG*e[5mC]*e[5mC]*e[5mC]*eT*eG) [compound 407594]”, “percent inhibition of Factor 7” value 80%. Against it:
- 407606 (antisense e[5mC]*eT*eG*eG*eT*d[5mC]*d[5mC]*dT*dT*dG*d[5mC]*dA*dG*dG*dA*eG*e[5mC]*e[5mC]*e[5mC]*e[5mC]) [compound 407606] — higher, 84%
- 407641 (antisense e[5mC]*e[5mC]*eT*eG*eA*dG*dG*d[5mC]*d[5mC]*dA*dG*d[5mC]*dA*dG*dA*eT*e[5mC]*eA*e[5mC]*eG) [compound 407641] — higher, 89%
- 407643 (antisense e[5mC]*eA*e[5mC]*eA*e[5mC]*dA*dT*dG*dG*dA*dG*dT*d[5mC]*dA*dG*e[5mC]*eA*eT*e[5mC]*eG) [compound 407643] — higher, 95%

Same assay, conditions: Table 7, 6.25 nM, approximately 16 hours

With “407643 (antisense e[5mC]*eA*e[5mC]*eA*e[5mC]*dA*dT*dG*dG*dA*dG*dT*d[5mC]*dA*dG*e[5mC]*eA*eT*e[5mC]*eG) [compound 407643]” the “percent inhibition of Factor 7” value was 36%.

Same assay, conditions: Table 7, 12.5 nM, approximately 16 hours

“407643 (antisense e[5mC]*eA*e[5mC]*eA*e[5mC]*dA*dT*dG*dG*dA*dG*dT*d[5mC]*dA*dG*e[5mC]*eA*eT*e[5mC]*eG) [compound 407643]” was tested, and the “percent inhibition of Factor 7” value was 49%.

Same assay, conditions: Table 7, 25.0 nM, approximately 16 hours

With “407643 (antisense e[5mC]*eA*e[5mC]*eA*e[5mC]*dA*dT*dG*dG*dA*dG*dT*d[5mC]*dA*dG*e[5mC]*eA*eT*e[5mC]*eG) [compound 407643]” the “percent inhibition of Factor 7” value was 70%.

Same assay, conditions: Table 7, 50.0 nM, approximately 16 hours

With “407643 (antisense e[5mC]*eA*e[5mC]*eA*e[5mC]*dA*dT*dG*dG*dA*dG*dT*d[5mC]*dA*dG*e[5mC]*eA*eT*e[5mC]*eG) [compound 407643]” the “percent inhibition of Factor 7” value was 83%.

Same assay, conditions: Table 7, 100.0 nM, approximately 16 hours

For “407643 (antisense e[5mC]*eA*e[5mC]*eA*e[5mC]*dA*dT*dG*dG*dA*dG*dT*d[5mC]*dA*dG*e[5mC]*eA*eT*e[5mC]*eG) [compound 407643]”, the “percent inhibition of Factor 7” value was 93%.
